This is an account of results in US20230295162A1 (EÖTVÖS LORÁND TUDOMÁNYEGYETEM, priority 2020, published 2023).

SMILES strings stand for the structures.

Series [1] concerns A-431 (human squamous carcinoma) cells. Kind of series: Short term cytotoxicity, MTT assay. It counts as cell-based. The following applies: 1 h treatment then 72 h culture, read-out: cytotoxicity expressed in IC50, A-431. As for the experimental part: (§1) For the short term cytotoxicity studies the A-431 (human squamous carcinoma) and U-87 (human primary glioblastoma) cells were cultured in RPMI-1640 medium supplemented with 10% FCS (fetal calf serum, Sigma Ltd.), 2 mM L-glutamine, and […] gentamicin. Cell cultures were maintained at 37° C. in a humidified atmosphere with 5% CO2. The cells were grown to confluency and were distributed into 96-well plate with initial cell number of 5.0×10^3 per well. After 24 h incubation at 37° C., the cells were treated with the compounds in 200 μL final volume containing 1.0 v/v % DMSO. The cells were incubated with the compounds at 10^−4-10^2 μM concentration range for 1 h. Control cells were treated with serum free medium (RPMI-1640) only or with DMSO (c=1.0 v/v %) at 37° C. for 1 h. After incubation the cells were washed twice with serum free (RPMI-1640) medium. To determine the in vitro cytostatic effect, the cells were cultured for a further 72 h in 10% serum containing medium. MTT-solution ([…], 2 mg/mL, final concentration: 0.37 mg/mL) was added to each well. The respiratory chain [26, 27] and other electron transport systems reduce MTT and thereby form non-water-soluble violet formazane crystals within the cell. […] After 4 h of incubation the cells were centrifuged for 5 min (900 g) and the supernatant was removed. The obtained formazane crystals were dissolved in DMSO ([…]) and optical density (OD) of the samples was measured at λ=540 and 620 nm, respectively, using ELISA Reader (iEMS Reader, Labsystems, Finland). OD620 values were subtracted from OD540 values. The percent of cytostasis was calculated by using the following equation: Cytostatic effect (%)=[1−(ODtreated/ODcontrol)]×100 Values ODtreated and ODcontrol correspond to the optical densities of the treated and the control cells, respectively. In each case two independent experiments were carried out with 4 parallel measurements. […] The curves were defined using Microcal™ Origin1 (version 7.5) software: cytostasis was plotted as a function of concentration, fitted to a sigmoidal curve, and based on this curve, the half maximal inhibitory concentration (IC50) value was determined.

In series [2] the test system is U-87 (human primary glioblastoma) cells. Kind of series: Short term cytotoxicity, MTT assay. The class given is cell-based. The following applies: 1 h treatment then 72 h culture, read-out: cytotoxicity expressed in IC50, U-87. As for the experimental part: as §1
(Formazan colour is commonly taken as a measure of viable cells.)

Series [3] deals with PANC-1 (human pancreatic carcinoma) cells. The experiment in a line: Impedance-based viability assay (xCELLigence SP), long treatment. The note with it: 72 h, read-out: cytotoxicity expressed in IC50, PANC-1. It counts as cell-based. The text has this:
(Gibco®/Invitrogen Corporation, New York, NY, USA).
Data obtained from each experiment represent mathematical averages.

Series [4] has as its system EBC-1 lung cancer cell line. The experiment in a line: High-throughput screening, CellTiter-Glo cell viability assay at 100 nM. The class given is cell-based, human. The note with it: Homo sapiens, EBC-1, HTS, compounds at 100 nM, 72 h, read-out: cytotoxicity expressed in IC50, EBC-1 (results of High throughput screening). A general note: ATP-based viability assays read luminescence as a measure of living cells.

The subject of series [5] is H2228 lung cancer cell line. The series is described as above. The class given is cell-based, human. The note with it: Homo sapiens, NCI-H2228, HTS, compounds at 100 nM, 72 h, read-out: cytotoxicity expressed in IC50, H2228 (results of High throughput screening).
In series [6] the test system is COLO-205 (human colorectal adenocarcinoma) cells. Kind of series: Colorimetric alamarBlue assay, long treatment. The note with it: COLO 205, 72 h, read-out: cytotoxicity expressed in IC50, COLO-205.
In series [7] the test system is A2058 (human metastatic melanoma) cells. The experiment in a line: Colorimetric alamarBlue assay, long treatment. The following applies: Homo sapiens, A2058, 72 h, read-out: cytotoxicity expressed in IC50, A-2058.
Series [8] deals with Panc1 pancreatic cancer cell line. Kind of series: CellTiter-Glo IC50 (Example 19). It counts as cell-based. The note with it: Homo sapiens, PANC-1, 72 h. The method, then: Some representative imipridones and ONC212 as reference were further tested on the following human malignant cell lines: PC3 and LNCap (prostate carcinoma); BxPC3, MiaPaCa2 and Panc1 (pancreatic cancer); A549, HCC827, H1993 and H520 (lung carcinoma); MDA-MB-453 and MDA-MB-231 (breast cancer) (see Table 2 and FIGS. 1-11).
(§2) Cell lines were maintained according to the instructions provided by ATCC (https://www.lgcstandards-atcc.org/) in a 5% CO2 humidified incubator maintained at 37° C. temperature. Effects of compounds on cell viability were measured via CellTiter-Glo® luminescent cell viability assay (Promega, Madison, WI, USA) Cells were plated at 1000 cells/well onto a flat-bottomed, white 96 well plate (BRANDplates, cat. no.: 781965). […] After the treatment, medium was removed and CellTiter-Glo® reagent was added. The luminescence signal was recorded using a microplate reader (BioTek Synergy 2 Multi-Mode Reader, BioTek, Winooski, VT, USA).
(§3) Cell viability data (% of untreated control cells) was evaluated with Microsoft Excel. Dose-response curves (using a non-linear regression model, log (inhibitor) vs response, variable slope) were generated and IC50 values were determined using Graph Pad Prism 5.02 software (GraphPad Software, San Diego, CA, USA).

Another series has as its system Detroit 562 cell line. The experiment in a line: Additional in vitro IC50 tests (Table 3). The note with it: Homo sapiens. The class given is cell-based. The method, then: as §2, §3
Another series relates to EBC-1 cell line. Kind of series: Additional in vitro IC50 tests (Table 3). It counts as cell-based. The note with it: Homo sapiens. The method, then: as §2, §3
Another series concerns Fadu cell line. The experiment in a line: Additional in vitro IC50 tests (Table 3). It counts as cell-based. The following applies: Homo sapiens. As for the experimental part: as §2, §3
Another series concerns H2228 cell line. The experiment in a line: Additional in vitro IC50 tests (Table 3). It counts as cell-based. The following applies: Homo sapiens, NCI-H2228. The method, then: as §2, §3
Another series deals with SCC-25 cell line. Kind of series: Additional in vitro IC50 tests (Table 3). It counts as cell-based. The note with it: Homo sapiens. As for the experimental part: as §2, §3

Consider `O=C1C2=C(CCN(Cc3ccccc3)C2)N2CCN=C2N1Cc1cccc(F)c1` [I/8], for which the half-inhibitory concentration (IC50) (commonly the concentration that inhibits the measured activity by half) was 7.29 µM in series [1]; greater than 25 µM in [2]; 1.42 µM in series [3]; greater than 0.1 µM in series [4]; greater than 0.1 µM in series [5]; 4.96 µM in series [6]. The IC50 in series [7] came to 1.73 µM.
In the case of `O=C1C2=C(CCN(Cc3ccc(F)cc3)C2)N2CCN=C2N1Cc1ccc(C(F)(F)F)c(F)c1` [I/28], the IC50 was 2.66 µM in series [1]; 17.6 µM in series [2]; 0.96 µM in [3]; greater than 0.1 µM in [4]; greater than 0.1 µM in [5]; 3.27 µM in series [6]. Besides, in series [7], the half-inhibitory concentration (IC50) is greater than 10 µM.
With `NCc1cccc(CN2C(=O)C3=C(CCN(Cc4cc(F)cc(F)c4)C3)N3CCN=C23)c1` [I/61, 4-(3-(Aminomethyl)benzyl)-7-(3,5-difluorobenzyl)-2,4,6,7,8,9-hexahydroimidazo[1,2-a]pyrido[3,4-e]pyrimidin-5(1H)-one], the melting point (as a rule, the temperature, or range, at which the solid turns liquid) came out at 129.5 °C. Also, in series [8], the IC50 is 0.3 µM. The IC50 in the series on Detroit 562 cell line was 0.084 µM. For the same molecule, the half-inhibitory concentration (IC50) with EBC-1 cell line stood at 0.029 µM. The IC50 with Fadu cell line worked out at 0.022 µM. Besides, in the series on H2228 cell line, the IC50 was 0.104 µM. In the series on SCC-25 cell line, the concentration for half-maximal inhibition (IC50) stood at 0.089 µM.
`O=C1C2=C(CCN(Cc3ccccc3)C2)N2CCN=C2N1Cc1cc(F)c(F)c(F)c1` [I/9]: the IC50 is 1.39 µM in series [1]; 6.02 µM in series [2]; 2.22 µM in series [3]; greater than 10 µM in [6]; greater than 10 µM in [7].
As for `O=C1C2=C(CCN(Cc3ccccc3)C2)N2CCN=C2N1Cc1ccc(F)cc1` [I/5], the IC50 in series [1] is 3.55 µM; in [2] it was greater than 25 µM; in series [3] it was 0.25 µM; in [4] it was greater than 0.1 µM; in [5], greater than 0.1 µM; in [6], 0.247 µM. For the same molecule, in series [7], the concentration for half-maximal inhibition (IC50) was 0.25 µM.
Take `O=C1C2=C(CCN(Cc3ccccc3F)C2)N2CCN=C2N1Cc1ccc(C(F)(F)F)c(F)c1` [I/26]: the half-maximal inhibitory concentration (IC50) is 3.63 µM in series [1]; 3.51 µM in series [2]; 0.92 µM in series [3]; greater than 0.1 µM in [4]; greater than 0.1 µM in [5]; greater than 10 µM in series [6]. Further, the IC50 in [7] was greater than 10 µM.
Take `O=C1C2=C(CCN(Cc3ccc(C(F)(F)F)cc3)C2)N2CCN=C2N1Cc1ccc(C(F)(F)F)c(F)c1` [I/27]: the 50% inhibitory concentration (IC50) was 8.95 µM in [1]; 5.99 µM in series [2]; 25 µM in [3]; greater than 0.1 µM in [4]; greater than 0.1 µM in series [5]; 25 µM in series [6]. Moreover, the IC50 in series [7] was found to be 12.8 µM.
Turning to `O=C1C2=C(CCN(Cc3cc(F)cc(F)c3)C2)N2CCN=C2N1C(CO)c1ccc(Cl)cc1` (racemic) [I/128], the melting point was found to be 86 °C. Also, the IC50 in series [8] was 0.01 µM. Moreover, in the series on Detroit 562 cell line, the IC50 amounted to 0.005 µM. Moreover, the IC50 in the series on EBC-1 cell line was found to be 0.013 µM. The IC50 in the series on Fadu cell line was determined as 0.012 µM. Further, the IC50 with H2228 cell line is 0.012 µM. Also, in the series with SCC-25 cell line, the IC50 was 0.019 µM.
For the molecule `O=C1C2=C(CCN(Cc3cccc(F)c3)C2)N2CCN=C2N1Cc1ccc(C(F)(F)F)c(F)c1` [I/31], the IC50 in [1] was less than 0.2 µM; in series [2] it was greater than 25 µM; in series [3], 0.0767 µM; in [4], less than 0.1 µM; in series [5] it was less than 0.1 µM.
Turning to `NCc1cccc(CN2C(=O)C3=C(CCN(Cc4cccc(F)c4)C3)N3CCN=C23)c1` [I/60], the concentration for half-maximal inhibition (IC50) in [1] was less than 0.2 µM; in series [2], 0.416 µM; in series [3] it was 0.43 µM; in series [4] it was greater than 0.1 µM; in series [5], greater than 0.1 µM; in [6], greater than 10 µM. In addition, the IC50 in series [7] was greater than 10 µM.
For `O=C1C2=C(CCN(Cc3cccc(F)c3)C2)N2CCN=C2N1Cc1ccc(I)cc1` [I/46], the 50% inhibitory concentration (IC50) is 6.16 µM in series [1]; 25 µM in [2]; 0.025 µM in series [3]; less than 0.1 µM in series [4]; roughly 0.1 µM in [5]; greater than 10 µM in [7].
